Key:
[1] = system: opto-α-syn PD hiPSC-derived mDA neurons; assay: Light-induced α-syn aggregation and neurotoxicity in opto-α-syn PD hiPSC-derived mDA neurons; type: cell-based, human; conditions: blue light 7 days; compared to DMSO control; significant at 1 and 10 nM CDC, 10 and 100 nM BAG
Protocol: Whether these potential hit compounds can inhibit α-syn aggregation and rescue aggregation-induced neuronal toxicity was tested on PD hiPSC-derived mDA neurons. The top 5 ranked small compounds in FIGURE SE were selected and these compounds to were used to treat opto-α-syn PD hiPSC-derived mDA neurons at three different concentrations (1 nM, 10 nM, 100 nM) with blue light stimulation. […] Overall, the two compounds were finally selected among the potential hit drugs from our novel opto-α-syn neuronal cell model-based primary screening (FIG. 11D), and they considerably rescued neuronal cell death from aggregation-induced TH^+ mDA neuron-selective toxicity in PD-iPSC derived neurons. To identify possible molecules involved in this compound-mediated recovery of TH^+ mDA neurons, RNA-sequencing (RNA-seq) analysis was performed with four different samples (dark condition with DMSO, blue light stimulation with DMSO, blue light stimulation with BAG treatment, and blue light stimulation with CDC treatment). To find BAG- or CDC-responsive genes, differentially expressed genes (DEGs) of DMSO-treated samples upon blue light stimulation were first extracted, and then the DEGs were filtered with criteria of which became non-DEGs in response to CDC or BAG treatment. […]
The effect of 5 selected compounds on opto-α-syn-expressing PD hiPSC-derived mDA neurons was evaluated. […]

[2] = system: human PD iPSC-derived mDA neurons treated with α-syn PFF; assay: α-syn PFF model in non-OASIS human PD hiPSC-derived mDA neurons (TX-insoluble pS129-α-syn); type: cell-based; conditions: α-syn PFF with compound for 14 days
Protocol: To validate the effects of these two compounds on the OASIS-independent model, α-syn PFF were treated with mouse primary neurons and non-OASIS-human PD hiPSC-derived mDA neurons with CDC 021 and BAG 956.

[3] = system: α-syn PFF injected mice; assay: In vivo intrastriatal α-syn PFF mouse model, oral BAG 956 (behaviour, histology, biochemistry)
Protocol: To test the neuroprotective potential of BAG 956, in vivo α-syn PFF mouse model was used for a short-term period. […] Next, BAG 956 efficacy was validated for long-term treatment on α-syn PFF mouse model by comprehensive behavioral and biochemical assays. Behavioral analysis was performed to evaluate the behavioral defect elicited by intrastriatal α-syn PFF injection and any restoration of behavioral dysfunction by oral administration of BAG 956 for 6 months at a low (2 mg/kg) or high (10 mg/kg) concentration after one-month recovery from α-syn PFF injection. PBS injected mice were treated vehicle or BAG956^high (10 mg/kg), whereas α-syn PFF injected mice were orally administered with vehicle, BAG 956^low (2 mg/kg), or BAG956^high (10 mg/kg) (FIG. 13A). […] The open field test (OFT) and elevated plus maze (EPM) were performed to evaluate locomotion, exploration, and anxiety behaviors. […] Next, hippocampal- or amygdala-dependent learning and memory based contextual or cued fear conditioning tests were performed. […] To examine whether the oral administration of BAG 956 could rescue the loss of DA neurons induced by intrastriatal α-syn PFF injection, the number of TH-positive neurons in the substantia nigra pars compacta (SNpc) was measured via an unbiased stereological counting analysis.

[4] = system: α-syn PFF-treated opto-α-syn-mDA neurons; assay: Autophagy markers (western blot) in α-syn PFF-treated mDA neurons; type: cell-based, human; conditions: compared with control or CDC 021 treatment
Protocol: Because autophagy can be activated by the inhibition of PI 3-kinase (PI3K) or the PDK1 pathway, it was tested whether treatment with BAG 956 can induce the autophagic flux to decrease α-syn aggregates in opto-α-syn mDA neurons and MOs.

[5] = system: PI3K-PDK1/AKT/mTOR signaling pathway; assay: PI3K/PDK1 downstream target phosphorylation in ventral midbrain of α-syn PFF-injected mice; type: in vivo, mouse
Source text: Since PI3K-PDK1/AKT/mTOR signaling pathway plays a critical role in regulation of autophagy, it was investigated the effects of BAG 956 treatments on PFF models. […] Taken together, BAG 956 may act as an autophagy-enhancing drug through inhibition of the PI3K-PDK1/AKT/mTOR signaling pathway (FIG. 18I).

[6] = system: tau PFF treated mouse cortical neurons; assay: tau PFF treated mouse cortical neurons, p-Tau western blot; type: cell-based
Protocol: It was tested whether the BAG956 compound can be beneficial in other proteinopathy models. The BAG and CDC compounds were used on the tau PFF treated mouse […] neurons (FIGS. 15A-15D) and measured expression levels with three different phosphorylated-Tau (p-Tau) antibodies.

[7] = oral, 6 months, both 2 mg/kg and 10 mg/kg

Cc1nc2cnc3ccc(C#Cc4cccnc4)cc3c2n1-c1ccc(C(C)(C)C#N)cc1 [BAG 956]
survival rate of TH+ mDA neurons [1]: significant increase | TX-insoluble pS129-α-syn [2]: significant decrease | pathologic pSer129-α-syn immunoreactivity in TH-positive neurons of the SN (IHC) ([3]; long-term oral, 10 mg/kg): significantly rescued | number of TH- and Nissl-positive stained DA neurons in SNpc (stereological counting) ([3]; oral, 10 mg/kg): recovered | protein levels of TH in ventral midbrain and striatum ([3]; oral, 10 mg/kg): rescued | striatal TH-positive fiber density (IHC) ([3]; oral, 10 mg/kg): rescued | endpoint body mass ([3]; oral, 6 months, 2 mg/kg or 10 mg/kg, all groups): No endpoint body mass differences | time spent, number of entries in the far zone of the open arm of the EPM ([3]; oral, 6 months, 10 mg/kg): significantly restored | time spent, number of entries, travelled distance in the center zone of the OFT ([3]; oral, 6 months, 10 mg/kg): significantly restored | contextual or cued fear conditioning: total freezing time and freezing episode [3, 7]: recovered | fore- and hind-limb grip strength [3, 7]: dramatically recovered | latency to fall from the rotarod test [3, 7]: dramatically recovered | levels of pS129-α-syn in the TX-insoluble fraction of ventral midbrain (WB) ([3]; oral, both 2 mg/kg and 10 mg/kg): significantly reduced | level of autophagic marker LC-311 [4]: up-regulated | level of autophagy flux protein p62 [4]: down-regulated | pS473-AKT ([5]; α-syn PFF injected mice, normalized to pan-AKT): reduced | Phosphorylation of PDK1 downstream targets PI3K, AKT, S6K, and mTOR ([5]; α-syn PFF-injected mice, 2 mg/kg or 10 mg/kg): significantly reduced | all three forms of p-Tau (AT8, AT180, Tau-217) [6]: significantly downregulated

— patent US20260023070A1, “OPTOGENETIC ALPHA-SYNUCLEIN AGGREGATION SYSTEM-BASED COMPOUND SCREENING PLATFORM IN PD-hiPSC-mDA NEURONS” (The Johns Hopkins University, priority 2022, published 2026)
